Key:
[1] = test system: Loblolly pine megagametophytes; assay: Vacuum infiltration of abscisic acid solutions (liquid media #1036) before culture on solid media #1042, eight weeks; type: cell-based
Source text: In this experiment the effects of megagametophyte pre-treatment by vacuum infiltration with abscisic acid solutions of varying concentration was investigated. The explants were megagametophytes from summer cones of four open pollinated individual trees, representing multiplicity of genotypes. The seeds contained Stage 2-4 zygotic embryos. Megagametophytes were excised from sterilized seeds, as described in Example 4.
Prior to culturing, the megagametophytes were vacuum infiltrated with liquid growth media #1036 (see Table 47) containing 0, 1, 5, or 25 ppm abscisic acid (See Table 19 for treatment media compositions). After vacuum infiltration, each megagametophyte was placed on 2 ml solid culture media #1042 (see Table 47 for composition) in a single well on a culture well plate.
One possible explanation for the results is that vacuum treatment may damage the megagametophytes.

[2] = test system: Pinus embryogenic cultures; conditions: solid initiation media containing 30-90 mg/l ABA; cited from earlier work
[3] = test system: Norway spruce zygotic embryos; assay: Norway spruce initiation after ABA pre-treatment of seed or explant, ten weeks; type: cell-based
Method: In this Example, various ABA pre-treatment methods are compared.
Explants were zygotic embryos flipped out of the megagametophyte, prepared as in Example 1. The experiment consisted of four replications, with a replication consisting of ten explants in a single petri dish. Explants were cultured on solid media lacking ABA.
The treatments were designed to investigate the effects of pre-treating the whole seed compared to treating the explant (i.e. the embryo and megagametophyte) after their removal from the seed. It is presumed that soaking a whole seed will result in less ABA uptake by the megagametophyte and embryo than soaking them directly in ABA due to their being surrounded by seed tissue. Two treatments also compared the effect of the pH of the ABA solution. In Treatment #1, the control, seeds were soaked in water for 24 hours, and then explants were prepared as in Example 1. In Treatment #2, seeds were soaked in 5 ppm ABA for 24 hours prior to explant removal. In Treatment #3, seeds were soaked in 20 ppm ABA for 24 hours prior to explant removal. In Treatment #4, seeds were soaked in water for 24 hours and then the explants were removed and soaked in a 5 ppm ABA solution of pH 4.5 for 30 minutes. In Treatment #5 seeds were soaked in water for 24 hours and then the explants were removed and soaked in a 5 ppm ABA solution of pH 5.5 for 30 minutes. After ten weeks, the explants were examined and the frequency of embryogenic culture initiation was scored (Table 44).

[4] = test system: Loblolly pine megagametophytes; assay: Loblolly pine extrusion and initiation on solid media #945 with brassinolide, eight weeks; type: cell-based
Method: In each replicate set of ten explants, the frequency of extrusion was measured as the number of extrusions per ten megagametophytes. A successful extrusion was scored where a filamentous mass of tissue that had emerged from the megagametophyte was clearly visible. Initiation was also scored at the end of the 8th week. In each replicate set of ten explants, the frequency of initiation was recorded as the number of successful initiations out of the ten megagametophytes. A successful initiation was scored where the extruded tissue had clearly proliferated and at least one somatic embryo was visible. Often, visualization was aided by the fact that the zygotic tissue was brownish while new somatic embryos were whitish and translucent. Also, somatic embryos could often be seen growing directly from zygotic embryos.
This experiment measured the effects of varying concentrations of brassinolide on extrusion and initiation in Loblolly pine. The explants in this experiment were megagametophytes isolated from cone collections from four open-pollinated trees, representing a multiplicity of genotypes. The seeds contained Stage 2-4 zygotic embryos. Seeds were sterilized as described in Example 1. Seed coats were split and the megagametophytes were isolated by removing integuments and nucellus. Isolated megagametophytes were placed on solid media. […] The treatment media consisted of media #945 with added brassinolide varying from 0.005 to 0.1 μM (Table 10). The experiment consisted of three replications per treatment, per genotype.
Initiation frequency was increased by the addition of brassinolide at all concentrations (Table 12). There was no clear concentration effect within the tested range. […] One of skill in the art could empirically determine the upper and lower effective concentration of brassinolide which is effective in promoting initiation.

[5] = genotype 5-1207, treatment 2, 1 ppm abscisic acid
[6] = genotype 5-1207, treatment 3, 5 ppm abscisic acid
[7] = genotype 5-1207, treatment 4, 25 ppm abscisic acid
[8] = genotype 7-1051, treatment 2, 1 ppm abscisic acid
[9] = genotype 7-1051, treatment 3, 5 ppm abscisic acid
[10] = genotype 7-1051, treatment 4, 25 ppm abscisic acid
[11] = genotype 11-1055, treatment 2, 1 ppm abscisic acid
[12] = genotype 11-1055, treatment 3, 5 ppm abscisic acid
[13] = genotype 11-1055, treatment 4, 25 ppm abscisic acid
[14] = genotype 11-1507, treatment 2, 1 ppm abscisic acid
[15] = genotype 11-1507, treatment 3, 5 ppm abscisic acid
[16] = genotype 11-1507, treatment 4, 25 ppm abscisic acid
[17] = total, treatment 2, 1 ppm abscisic acid
[18] = total, treatment 3, 5 ppm abscisic acid
[19] = total, treatment 4, 25 ppm abscisic acid

CC1=CC(=O)CC(C)(C)C1(O)/C=C/C(C)=C\C(=O)O (stereo not shown) [ABA, 5-(1-hydroxy-2,6,6,-trimethyl-4-oxo-2-cyclohexen-1-yl)-3-methyl-2,4-penta dienoic acid]
% of Megagametophytes Extruding [1, 5]: 23.3 (14.5) % | % of Megagametophytes Initiating [1, 5]: 20 (11.5) % | % of Megagametophytes Extruding [1, 6]: 10.0 (5.8) % | % of Megagametophytes Initiating [1, 6]: 10 (5.8) % | % of Megagametophytes Extruding [1, 7]: 13.3 (13.3) % | % of Megagametophytes Initiating [1, 7]: 10 (10.0) % | % of Megagametophytes Extruding [1, 8]: 33.3 (8.8) % | % of Megagametophytes Initiating [1, 8]: 6.7 (3.3) % | % of Megagametophytes Extruding [1, 9]: 30.0 (11.5) % | % of Megagametophytes Initiating [1, 9]: 10 (5.8) % | % of Megagametophytes Extruding [1, 10]: 56.7 (12.0) % | % of Megagametophytes Initiating [1, 10]: 13.3 (8.8) % | % of Megagametophytes Extruding [1, 11]: 53.3 (3.3) % | % of Megagametophytes Initiating [1, 11]: 16.7 (3.3) % | % of Megagametophytes Extruding [1, 12]: 66.7 (12.0) % | % of Megagametophytes Initiating [1, 12]: 30 (11.5) % | % of Megagametophytes Extruding [1, 13]: 36.7 (3.3) % | % of Megagametophytes Initiating [1, 13]: 13.3 (3.3) % | % of Megagametophytes Extruding [1, 14]: 16.7 (6.7) % | % of Megagametophytes Initiating [1, 14]: 6.7 (6.7) % | % of Megagametophytes Extruding [1, 15]: 6.7 (3.3) % | % of Megagametophytes Initiating [1, 15]: 6.7 (3.3) % | % of Megagametophytes Extruding [1, 16]: 6.7 (3.3) % | % of Megagametophytes Initiating [1, 16]: 0 (0.0) % | % of Megagametophytes Extruding [1, 17]: 31.7% | % of Megagametophytes Initiating [1, 17]: 12.5% | % of Megagametophytes Extruding [1, 18]: 28.4% | % of Megagametophytes Initiating [1, 18]: 14.2% | % of Megagametophytes Extruding [1, 19]: 28.4% | % of Megagametophytes Initiating [1, 19]: 9.2% | promotion of extrusion or initiation ([1]; vacuum infiltration, 1, 5 or 25 ppm): did not promote extrusion or initiation | initiation frequencies [2]: 30-38% | % Initiating (std. error) ([3]; explant soaked in 5 ppm ABA (pH 4.5), 30 minutes): 31.2 (12.2) % | % Initiating (std. error) ([3]; explant soaked in 5 ppm ABA (pH 5.5), 30 minutes): 22.0 (3.0) % | % Initiating (std. error) ([3]; seed soaked in 5 ppm ABA, 24 hours): 15.1 (6.6) % | % Initiating (std. error) ([3]; seed soaked in 20 ppm ABA, 24 hours): 24.0 (5.4) %

CC(C)[C@H](C)[C@@H](O)[C@H](O)[C@@H](C)[C@H]1CC[C@H]2[C@@H]3COC(=O)[C@H]4C[C@H](O)[C@H](O)C[C@]4(C)[C@H]3CC[C@]12C [brassinolide]
Initiation frequency vs control ([4]; brassinolide at all concentrations (0.005 to 0.1 μM)): increased | % of Megagametophytes Extruding ([4]; genotype FC, 0.005 μM Br): 40.0 (5.8) % | % of Megagametophytes Initiating ([4]; genotype FC, 0.005 μM Br): 0 (0) % | % of Megagametophytes Extruding ([4]; genotype FC, 0.01 μM Br): 20.0 (5.8) % | % of Megagametophytes Initiating ([4]; genotype FC, 0.01 μM Br): 6.7 (3.3) % | % of Megagametophytes Extruding ([4]; genotype FC, 0.025 μM Br): 40.0 (5.8) % | % of Megagametophytes Initiating ([4]; genotype FC, 0.025 μM Br): 0 (0) % | % of Megagametophytes Extruding ([4]; genotype FC, 0.05 μM Br): 26.7 (3.3) % | % of Megagametophytes Initiating ([4]; genotype FC, 0.05 μM Br): 0 (0) % | % of Megagametophytes Extruding ([4]; genotype FC, 0.1 μM Br): 31.8 (16.5) % | % of Megagametophytes Initiating ([4]; genotype FC, 0.1 μM Br): 3.7 (3.7) % | % of Megagametophytes Extruding ([4]; genotype FT, 0.005 μM Br): 96.7 (3.3) % | % of Megagametophytes Initiating ([4]; genotype FT, 0.005 μM Br): 53.3 (12.0) % | % of Megagametophytes Extruding ([4]; genotype FT, 0.01 μM Br): 86.7 (8.8) % | % of Megagametophytes Initiating ([4]; genotype FT, 0.01 μM Br): 43.3 (16.7) % | % of Megagametophytes Extruding ([4]; genotype FT, 0.025 μM Br): 93.3 (6.7) % | % of Megagametophytes Initiating ([4]; genotype FT, 0.025 μM Br): 46.7 (12.0) % | % of Megagametophytes Extruding ([4]; genotype FT, 0.05 μM Br): 93.3 (3.3) % | % of Megagametophytes Initiating ([4]; genotype FT, 0.05 μM Br): 53.3 (8.8) % | % of Megagametophytes Extruding ([4]; genotype FT, 0.1 μM Br): 86.7 (3.3) % | % of Megagametophytes Initiating ([4]; genotype FT, 0.1 μM Br): 50 (3.3) % | % of Megagametophytes Extruding ([4]; genotype FW, 0.005 μM Br): 83.3 (8.8) % | % of Megagametophytes Initiating ([4]; genotype FW, 0.005 μM Br): 20 (5.8) % | % of Megagametophytes Extruding ([4]; genotype FW, 0.01 μM Br): 50.0 (10.0) % | % of Megagametophytes Initiating ([4]; genotype FW, 0.01 μM Br): 3.3 (3.3) % | % of Megagametophytes Extruding ([4]; genotype FW, 0.025 μM Br): 64.8 (13.4) % | % of Megagametophytes Initiating ([4]; genotype FW, 0.025 μM Br): 20.7 (11.6) % | % of Megagametophytes Extruding ([4]; genotype FW, 0.05 μM Br): 70.0 (11.5) % | % of Megagametophytes Initiating ([4]; genotype FW, 0.05 μM Br): 13.3 (8.8) % | % of Megagametophytes Extruding ([4]; genotype FW, 0.1 μM Br): 73.3 (8.8) % | % of Megagametophytes Initiating ([4]; genotype FW, 0.1 μM Br): 30 (5.8) % | % of Megagametophytes Extruding ([4]; genotype FX, 0.005 μM Br): 53.3 (8.8) % | % of Megagametophytes Initiating ([4]; genotype FX, 0.005 μM Br): 26.7 (8.8) % | % of Megagametophytes Extruding ([4]; genotype FX, 0.01 μM Br): 63.3 (14.5) % | % of Megagametophytes Initiating ([4]; genotype FX, 0.01 μM Br): 33.3 (12.0) % | % of Megagametophytes Extruding ([4]; genotype FX, 0.025 μM Br): 70.0 (5.8) % | % of Megagametophytes Initiating ([4]; genotype FX, 0.025 μM Br): 23.3 (3.3) % | % of Megagametophytes Extruding ([4]; genotype FX, 0.05 μM Br): 73.3 (8.8) % | % of Megagametophytes Initiating ([4]; genotype FX, 0.05 μM Br): 43.3 (6.7) % | % of Megagametophytes Extruding ([4]; genotype FX, 0.1 μM Br): 76.7 (8.8) % | % of Megagametophytes Initiating ([4]; genotype FX, 0.1 μM Br): 36.7 (8.8) % | concentrations at which brassinolide was effectively used ([4]; in our media): 0.005 to 0.25 µM | % of Megagametophytes Extruding ([4]; total, 0.005 μM Br): 68.3% | % of Megagametophytes Initiating ([4]; total, 0.005 μM Br): 25.0% | % of Megagametophytes Extruding ([4]; total, 0.01 μM Br): 55.0% | % of Megagametophytes Initiating ([4]; total, 0.01 μM Br): 21.7% | % of Megagametophytes Extruding ([4]; total, 0.025 μM Br): 67.0% | % of Megagametophytes Initiating ([4]; total, 0.025 μM Br): 22.7% | % of Megagametophytes Extruding ([4]; total, 0.05 μM Br): 65.8% | % of Megagametophytes Initiating ([4]; total, 0.05 μM Br): 27.5% | % of Megagametophytes Extruding ([4]; total, 0.1 μM Br): 67.1% | % of Megagametophytes Initiating ([4]; total, 0.1 μM Br): 30.1%
